# Measured values reported in ChEMBL document CHEMBL5584337, “Structure-Based Drug Design of 2-Amino-[1,1'-biphenyl]-3-carboxamide Derivatives as Selective PKMYT1 Inhibitors for the Treatment of CCNE1-Amplified Breast Cancer” (J Med Chem, 2024).
# Active and inactive are the calls of the source. The rule behind the calls is not given here.
# Legend:
# [1] = test system: HCC1569; assay: Antiproliferative activity against human HCC1569 cells incubated for 48 to 96 hrs by CCK-8 assay; assay type: functional, cell-based
# [2] = test system: ZR-75-1; assay: Antiproliferative activity against human ZR-75-1 cells incubated for 48 to 96 hrs by CCK-8 assay; assay type: functional, cell-based
# [3] = biological target: Membrane-associated tyrosine- and threonine-specific cdc2-inhibitory kinase (Homo sapiens, UniProt Q99640); assay: Inhibition of recombinant human GST-tagged PKMYT1 (75 to 362 residues) expressed in insect cells using GTDEGIYDVPLLG as substrate preincubated for 15 mins followed by substrate and ATP addition and measured after 1 hr by ADP-Glo kinase assay; set-up: species or system Insect cell
# Membrane-associated tyrosine- and threonine-specific cdc2-inhibitory kinase, sequence (Q99640 whole entry, the tested form may be a part): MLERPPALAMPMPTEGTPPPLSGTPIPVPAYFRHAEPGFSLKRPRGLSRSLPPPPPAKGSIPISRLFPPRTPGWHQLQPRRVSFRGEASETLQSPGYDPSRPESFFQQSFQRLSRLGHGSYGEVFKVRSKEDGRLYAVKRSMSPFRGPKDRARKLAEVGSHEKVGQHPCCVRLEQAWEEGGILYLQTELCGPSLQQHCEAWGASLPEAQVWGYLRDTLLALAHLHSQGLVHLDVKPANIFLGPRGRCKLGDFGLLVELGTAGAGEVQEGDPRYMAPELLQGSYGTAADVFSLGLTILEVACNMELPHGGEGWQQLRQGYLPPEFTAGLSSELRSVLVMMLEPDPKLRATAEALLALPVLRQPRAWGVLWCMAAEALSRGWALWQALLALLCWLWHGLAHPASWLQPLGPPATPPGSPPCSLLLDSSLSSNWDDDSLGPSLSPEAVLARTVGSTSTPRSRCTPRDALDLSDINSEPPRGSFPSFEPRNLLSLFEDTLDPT
# [4] = biological target: Wee1-like protein kinase (Homo sapiens, UniProt P30291); assay: Inhibition of recombinant full-length human GST-tagged Wee1 expressed in insect cells using KIGEGTYGVVYKG as substrate preincubated for 15 mins followed by substrate and ATP addition and measured after 1 hr by ADP-Glo kinase assay; set-up: species or system Insect cell
# [5] = biological target: Activated CDC42 kinase 1 (Homo sapiens, UniProt Q07912); assay: Inhibition of ACK1 (unknown origin)
# Activated CDC42 kinase 1, sequence (Q07912 whole entry): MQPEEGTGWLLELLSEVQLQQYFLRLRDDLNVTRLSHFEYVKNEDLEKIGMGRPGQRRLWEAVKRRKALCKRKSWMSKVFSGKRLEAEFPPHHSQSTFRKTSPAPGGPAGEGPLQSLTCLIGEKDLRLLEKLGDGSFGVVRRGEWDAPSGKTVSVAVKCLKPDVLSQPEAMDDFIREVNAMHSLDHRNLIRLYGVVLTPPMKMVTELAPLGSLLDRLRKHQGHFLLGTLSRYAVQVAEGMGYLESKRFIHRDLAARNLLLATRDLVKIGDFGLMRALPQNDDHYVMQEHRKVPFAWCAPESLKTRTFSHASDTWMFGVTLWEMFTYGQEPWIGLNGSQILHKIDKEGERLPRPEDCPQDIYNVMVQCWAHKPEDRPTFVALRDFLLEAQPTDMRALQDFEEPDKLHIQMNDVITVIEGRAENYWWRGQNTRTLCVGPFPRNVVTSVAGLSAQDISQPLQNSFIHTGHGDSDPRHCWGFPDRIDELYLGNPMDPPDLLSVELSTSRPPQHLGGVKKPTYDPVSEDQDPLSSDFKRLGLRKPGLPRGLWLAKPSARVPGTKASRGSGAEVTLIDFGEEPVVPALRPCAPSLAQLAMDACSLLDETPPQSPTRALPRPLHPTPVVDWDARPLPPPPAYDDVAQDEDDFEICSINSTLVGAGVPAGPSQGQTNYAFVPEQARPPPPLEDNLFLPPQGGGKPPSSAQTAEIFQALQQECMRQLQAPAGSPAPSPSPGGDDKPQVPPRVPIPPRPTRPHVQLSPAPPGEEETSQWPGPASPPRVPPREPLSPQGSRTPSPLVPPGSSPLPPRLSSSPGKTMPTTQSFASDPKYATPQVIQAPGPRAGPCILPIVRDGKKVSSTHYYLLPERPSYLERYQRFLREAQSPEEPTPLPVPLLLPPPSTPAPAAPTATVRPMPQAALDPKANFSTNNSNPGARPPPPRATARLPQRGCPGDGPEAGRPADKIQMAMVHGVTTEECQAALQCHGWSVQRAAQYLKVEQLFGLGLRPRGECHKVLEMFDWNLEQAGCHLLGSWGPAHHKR
# [6] = biological target: Tyrosine-protein kinase ABL2 (Homo sapiens, UniProt P42684); assay: Inhibition of Arg (unknown origin)
# Tyrosine-protein kinase ABL2, sequence (P42684 whole entry): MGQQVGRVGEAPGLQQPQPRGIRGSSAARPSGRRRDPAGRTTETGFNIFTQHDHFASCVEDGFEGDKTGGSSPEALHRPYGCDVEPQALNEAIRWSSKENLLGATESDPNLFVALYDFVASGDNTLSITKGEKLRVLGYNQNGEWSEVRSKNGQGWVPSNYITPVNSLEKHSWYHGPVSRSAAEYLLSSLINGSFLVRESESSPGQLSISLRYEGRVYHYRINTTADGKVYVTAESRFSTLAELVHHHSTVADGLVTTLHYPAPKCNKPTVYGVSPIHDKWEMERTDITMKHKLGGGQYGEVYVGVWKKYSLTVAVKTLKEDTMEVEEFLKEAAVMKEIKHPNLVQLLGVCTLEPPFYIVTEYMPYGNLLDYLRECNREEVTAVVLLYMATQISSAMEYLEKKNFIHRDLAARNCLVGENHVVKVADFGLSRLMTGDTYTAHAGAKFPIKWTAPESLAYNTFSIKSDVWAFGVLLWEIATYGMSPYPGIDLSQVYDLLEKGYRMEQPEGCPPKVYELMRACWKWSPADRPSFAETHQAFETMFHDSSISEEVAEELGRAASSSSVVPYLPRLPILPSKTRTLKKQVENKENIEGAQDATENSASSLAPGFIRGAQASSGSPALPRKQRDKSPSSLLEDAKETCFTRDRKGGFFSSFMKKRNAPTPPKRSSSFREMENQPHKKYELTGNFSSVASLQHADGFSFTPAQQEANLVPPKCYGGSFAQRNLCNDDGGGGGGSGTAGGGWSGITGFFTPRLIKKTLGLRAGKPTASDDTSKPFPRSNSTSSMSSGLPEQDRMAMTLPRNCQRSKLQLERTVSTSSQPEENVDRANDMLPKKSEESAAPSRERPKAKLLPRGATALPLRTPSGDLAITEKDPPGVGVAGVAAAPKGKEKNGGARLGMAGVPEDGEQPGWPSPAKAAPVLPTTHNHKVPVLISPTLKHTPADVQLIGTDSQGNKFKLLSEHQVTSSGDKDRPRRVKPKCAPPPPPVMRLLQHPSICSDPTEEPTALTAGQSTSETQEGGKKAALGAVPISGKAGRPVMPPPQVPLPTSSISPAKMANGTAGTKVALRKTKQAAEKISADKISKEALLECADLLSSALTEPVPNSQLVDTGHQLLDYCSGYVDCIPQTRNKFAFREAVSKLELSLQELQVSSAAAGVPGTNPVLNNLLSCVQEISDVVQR
# [7] = biological target: Tyrosine-protein kinase Blk (Homo sapiens, UniProt P51451); assay: Inhibition of BLK (unknown origin)
# [8] = biological target: Protein-tyrosine kinase 6 (Homo sapiens, UniProt Q13882); assay: Inhibition of BRK (unknown origin)
# Protein-tyrosine kinase 6, sequence (Q13882 whole entry): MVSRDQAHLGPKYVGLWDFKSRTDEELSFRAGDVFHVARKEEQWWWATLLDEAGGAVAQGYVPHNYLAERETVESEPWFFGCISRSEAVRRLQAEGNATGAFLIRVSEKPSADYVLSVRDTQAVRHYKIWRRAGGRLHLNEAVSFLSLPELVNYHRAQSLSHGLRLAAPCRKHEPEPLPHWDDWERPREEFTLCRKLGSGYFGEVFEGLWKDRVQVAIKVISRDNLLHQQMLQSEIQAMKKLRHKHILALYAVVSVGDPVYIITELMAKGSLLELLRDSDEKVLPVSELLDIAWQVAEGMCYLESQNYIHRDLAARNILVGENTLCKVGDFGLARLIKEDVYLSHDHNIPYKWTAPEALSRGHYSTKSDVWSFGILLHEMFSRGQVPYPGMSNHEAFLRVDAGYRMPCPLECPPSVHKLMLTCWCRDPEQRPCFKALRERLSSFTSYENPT
# [9] = biological target: Proto-oncogene tyrosine-protein kinase Src (Homo sapiens, UniProt P12931); assay: Inhibition of cSRC (unknown origin)
# [10] = biological target: Epithelial discoidin domain-containing receptor 1 (Homo sapiens, UniProt Q08345); assay: Inhibition of DDR1 (unknown origin)
# [11] = biological target: Ephrin type-A receptor 1 (Homo sapiens, UniProt P21709); assay: Inhibition of EphA1 (unknown origin)
# [12] = biological target: Ephrin type-B receptor 2 (Homo sapiens, UniProt P29323); assay: Inhibition of EphB2 (unknown origin)
# Ephrin type-B receptor 2, sequence (P29323 whole entry): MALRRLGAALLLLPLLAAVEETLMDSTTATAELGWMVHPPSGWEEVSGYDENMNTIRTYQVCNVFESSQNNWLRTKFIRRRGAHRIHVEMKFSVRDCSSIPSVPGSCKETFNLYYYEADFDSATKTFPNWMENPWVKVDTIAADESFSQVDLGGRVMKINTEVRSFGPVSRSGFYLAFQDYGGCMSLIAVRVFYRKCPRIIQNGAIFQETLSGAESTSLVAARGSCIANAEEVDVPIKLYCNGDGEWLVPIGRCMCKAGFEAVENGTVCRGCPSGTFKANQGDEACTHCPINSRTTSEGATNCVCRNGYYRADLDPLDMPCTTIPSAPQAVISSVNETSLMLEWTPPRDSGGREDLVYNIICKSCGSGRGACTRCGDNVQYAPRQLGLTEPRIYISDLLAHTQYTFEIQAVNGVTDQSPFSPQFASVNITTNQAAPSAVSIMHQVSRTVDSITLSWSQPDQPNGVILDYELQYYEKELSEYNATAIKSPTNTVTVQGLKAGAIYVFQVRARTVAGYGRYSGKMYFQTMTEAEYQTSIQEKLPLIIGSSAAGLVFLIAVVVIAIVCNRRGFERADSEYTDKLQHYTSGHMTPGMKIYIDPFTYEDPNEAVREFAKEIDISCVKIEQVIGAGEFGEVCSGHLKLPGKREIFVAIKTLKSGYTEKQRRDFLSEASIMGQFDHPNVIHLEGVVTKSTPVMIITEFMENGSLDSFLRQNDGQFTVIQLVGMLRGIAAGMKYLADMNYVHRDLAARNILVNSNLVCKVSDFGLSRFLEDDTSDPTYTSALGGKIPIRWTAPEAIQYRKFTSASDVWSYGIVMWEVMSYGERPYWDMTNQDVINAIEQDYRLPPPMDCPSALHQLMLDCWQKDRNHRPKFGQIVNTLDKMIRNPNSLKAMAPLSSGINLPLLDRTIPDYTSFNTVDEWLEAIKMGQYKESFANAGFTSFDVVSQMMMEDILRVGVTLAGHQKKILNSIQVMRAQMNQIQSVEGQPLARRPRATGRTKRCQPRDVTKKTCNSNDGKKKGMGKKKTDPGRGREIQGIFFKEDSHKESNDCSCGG
# [13] = biological target: Ephrin type-B receptor 1 (Homo sapiens, UniProt P54762); assay: Inhibition of EphB1 (unknown origin)
# [14] = biological target: Ephrin type-B receptor 4 (Homo sapiens, UniProt P54760); assay: Inhibition of EphB4 (unknown origin)
# [15] = biological target: Tyrosine-protein kinase Fgr (Homo sapiens, UniProt P09769); assay: Inhibition of Fgr (unknown origin)
# [16] = biological target: Tyrosine-protein kinase HCK (Homo sapiens, UniProt P08631); assay: Inhibition of HCK (unknown origin)
# [17] = biological target: Tyrosine-protein kinase Lck (Homo sapiens, UniProt P06239); assay: Inhibition of LCK (unknown origin)
# Tyrosine-protein kinase Lck, sequence (P06239 whole entry): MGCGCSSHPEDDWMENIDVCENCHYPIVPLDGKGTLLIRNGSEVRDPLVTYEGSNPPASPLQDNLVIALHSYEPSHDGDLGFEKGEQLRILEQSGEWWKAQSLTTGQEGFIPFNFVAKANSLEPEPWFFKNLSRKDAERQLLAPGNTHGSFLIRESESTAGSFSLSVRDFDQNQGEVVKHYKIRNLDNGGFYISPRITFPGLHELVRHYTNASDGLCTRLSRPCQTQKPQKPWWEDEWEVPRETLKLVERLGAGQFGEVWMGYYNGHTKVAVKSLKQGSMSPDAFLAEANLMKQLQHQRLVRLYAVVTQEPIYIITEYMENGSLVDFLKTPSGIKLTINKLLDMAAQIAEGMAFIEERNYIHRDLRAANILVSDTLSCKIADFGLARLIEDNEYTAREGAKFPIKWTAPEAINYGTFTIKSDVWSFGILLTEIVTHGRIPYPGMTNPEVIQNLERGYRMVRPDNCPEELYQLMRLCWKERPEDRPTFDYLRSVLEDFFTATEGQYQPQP
# [18] = biological target: Tyrosine-protein kinase Lyn (Homo sapiens, UniProt P07948); assay: Inhibition of Lyn (unknown origin)
# [19] = biological target: Tyrosine-protein kinase Yes (Homo sapiens, UniProt P07947); assay: Inhibition of YES (unknown origin)
# [20] = biological target: Cyclin-dependent kinase 1 (Homo sapiens) (UniProt P06493); assay: Inhibition of CDK1 phosphorylation at Thr14 in human HCC1569 cells after 4 hrs by Western blotting analysis; assay type: cell-based; conditions: dose 0.1-2 µM
# Cyclin-dependent kinase 1 (Homo sapiens), sequence (P06493 whole entry, looked up): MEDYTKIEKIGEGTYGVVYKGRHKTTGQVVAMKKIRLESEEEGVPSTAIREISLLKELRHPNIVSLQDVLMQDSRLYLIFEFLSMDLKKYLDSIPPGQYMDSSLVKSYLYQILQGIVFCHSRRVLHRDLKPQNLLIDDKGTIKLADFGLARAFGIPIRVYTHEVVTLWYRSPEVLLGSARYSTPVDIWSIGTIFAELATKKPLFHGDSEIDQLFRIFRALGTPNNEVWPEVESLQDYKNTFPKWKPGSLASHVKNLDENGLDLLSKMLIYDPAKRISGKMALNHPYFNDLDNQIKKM
# [21] = biological target: Cyclin-dependent kinase 1 (Homo sapiens) (UniProt P06493); assay: Inhibition of CDK1 phosphorylation at Thr14 in human HCC1569 cells at 2 uM after 8 to 12 hrs by Western blotting analysis; assay type: cell-based; conditions: time 8-12 hrs
# [22] = biological target: Cyclin-dependent kinase 1 (Homo sapiens) (UniProt P06493); assay: Inhibition of CDK1 phosphorylation at […] in human HCC1569 cells at 2 uM after 0.5 to 12 hrs by Western blotting analysis; assay type: cell-based; conditions: time 0.5-12 hrs
# [23] = biological target: Cyclin-dependent kinase 2 (Homo sapiens) (UniProt P24941); assay: Inhibition of CDK2 phosphorylation at Tyr15 in human HCC1569 cells at 0.1 to 2 uM after 4 hrs by Western blotting analysis; assay type: cell-based; conditions: dose 0.1-2 µM
# [24] = test system: HCC1569; assay: Inhibition of colony formation in CCNE1-amplified human HCC1569 cells incubated for 14 days by crystal violet staining based microplate reader assay; assay type: functional, cell-based; conditions: HCC1569, 336 h
# [25] = test system: ZR-75-1; assay: Inhibition of colony formation in human ZR-75-1 cells incubated for 14 days by crystal violet staining based microplate reader assay; assay type: functional, cell-based; conditions: ZR-75-1, 336 h
# [26] = test system: HCC1569; assay: Induction of DNA damage in human HCC1569 cells assessed as upregulation of gammaH2AX level after 4 hrs by Western blotting analysis; assay type: functional, cell-based; conditions: dose 0.1-2 µM
# [27] = test system: HCC1569; assay: Induction of DNA damage in human HCC1569 cells assessed as upregulation of gammaH2AX level at 2 uM by Western blotting analysis; assay type: functional, cell-based; conditions: time 0.5-12 hrs, TDE = time-dependent effect
# [28] = test system: HCC1569; assay: Synergistic cytotoxicity against human HCC1569 cells after 48 to 96 hrs; assay type: functional, cell-based; conditions: time 48-96 hrs
# [29] = test system: HCC1569; assay: Induction of DNA damage in human HCC1569 cells assessed as upregulation of gammaH2AX level at 62.5 to 500 nM after 48 hrs in presence of gemcitabine by Western blotting analysis; assay type: functional, cell-based; conditions: dose 62.5-500 nM
# [30] = Cmax in Sprague-Dawley rat at 10 mg/kg, po measured upto 24 hrs by LC-MS/MS analysis; assay type: ADME, organism-based; conditions: in vivo
# [31] = AUC(0 to t) in Sprague-Dawley rat at 10 mg/kg, po measured upto 24 hrs by LC-MS/MS analysis; assay type: ADME, organism-based; conditions: in vivo
# [32] = Clearance in Sprague-Dawley rat at 10 mg/kg, po measured upto 24 hrs by LC-MS/MS analysis; assay type: ADME, organism-based; conditions: in vivo
smiles,measurement,setting,value
Cc1ccc(O)c(C)c1-c1cc(-c2ccncc2)cc(C(N)=O)c1N,IC50,[1],0.77 µM
same,IC50,[2],11.6 µM
same,IC50,[3],0.101 µM
Cc1ccc(O)c(C)c1-c1cc(-c2ccnc(OC[C@@H]3CCCN3)c2)cc(C(N)=O)c1N,IC50,[1],1.18 µM
same,IC50,[2],7.12 µM
Cc1ccc(O)c(C)c1-c1cc(-c2ccnc(N3CCCNCC3)c2)cc(C(N)=O)c1N,IC50,[1],0.29 µM
same,IC50,[2],4.83 µM
Cc1ccc(O)c(C)c1-c1cc(-c2ccnc(OC3CCNCC3)c2)cc(C(N)=O)c1N,IC50,[1],3.84 µM
same,IC50,[2],> 20 µM
Cc1ccc(O)c(C)c1-c1cc(-c2ccnc(OC[C@H]3CCNC3)c2)cc(C(N)=O)c1N,IC50,[1],2.19 µM
same,IC50,[2],8.53 µM
Cc1ccc(O)c(C)c1-c1cc(-c2ccnc(N3CC[C@H](N)C3)c2)cc(C(N)=O)c1N,IC50,[1],1.65 µM
same,IC50,[2],> 20 µM
Cc1ccc(O)c(C)c1-c1cc(-c2ccnc(N3CCOCC3)c2)cc(C(N)=O)c1N,IC50,[1],1.84 µM
same,IC50,[2],> 20 µM
Cc1ccc(O)c(C)c1-c1cc(-c2ccnc(OCCN)c2)cc(C(N)=O)c1N,IC50,[1],1.66 µM
same,IC50,[2],4.4 µM
Cc1ccc(O)c(C)c1-c1cc(-c2cc(OC(F)F)nc(N3CC[C@@H](N)C3)c2)cc(C(N)=O)c1N,IC50,[1],0.8 µM
same,IC50,[2],4.15 µM
Cc1ccc(O)c(C)c1-c1cc(-c2ccnc(N3C4CNCC3C4)c2)cc(C(N)=O)c1N,IC50,[1],> 20 µM
same,IC50,[2],> 20 µM
Cc1ccc(O)c(C)c1-c1cc(-c2ccnc(N3CC[C@@H](N)C3)c2)cc(C(N)=O)c1N,IC50,[1],0.29 µM
same,IC50,[2],8.49 µM
Cc1ccc(O)c(C)c1-c1cc(-c2cc(F)nc(N3CC[C@@H](N)C3)c2)cc(C(N)=O)c1N,IC50,[1],0.25 µM
same,IC50,[2],4.96 µM
same,IC50,[3],0.0165 µM
same,IC50,[4],8.2 µM
same,IC50,[5],0.268 µM
same,IC50,[6],0.0109 µM
same,IC50,[7],0.0601 µM
same,IC50,[8],0.008 µM
same,IC50,[9],0.0099 µM
same,IC50,[10],0.0106 µM
same,IC50,[11],0.11 µM
same,IC50,[12],0.0272 µM
same,IC50,[13],0.0416 µM
same,IC50,[14],0.134 µM
same,IC50,[15],0.0093 µM
same,IC50,[16],0.0486 µM
same,IC50,[17],0.0145 µM
same,IC50,[18],0.0183 µM
same,IC50,[19],> 1 µM
same,inhibition,[20],Dose-Dependent Effect
same,inhibition,[21],100%
same,inhibition,[22],inactive
same,inhibition,[23],inactive
same,EC50,[24],0.117 µM
same,EC50,[25],> 5 µM
same,Activity,[26],Dose-Dependent Effect
same,Activity,[27],Tde
same,Activity,[28],Active
same,Activity,[29],Active
same,Cmax,[30],6.17 ng/mL
same,AUCt,[31],6.51 ng·h/mL
same,CL,[32],92.17 mL/min/kg
Cc1ccc(O)c(C)c1-c1cc(-c2ccnc(N3CCNCC3)c2)cc(C(N)=O)c1N,IC50,[1],1.39 µM
same,IC50,[2],> 20 µM
CNCCCOc1cc(-c2cc(C(N)=O)c(N)c(-c3c(C)ccc(O)c3C)c2)ccn1,IC50,[1],2.49 µM
same,IC50,[2],> 20 µM
Cc1ccc(O)c(C)c1-c1cc(-c2ccnc(OCCCN)c2)cc(C(N)=O)c1N,IC50,[1],9.48 µM
same,IC50,[2],15.4 µM
Cc1ccc(O)c(C)c1-c1cc(-c2ccnc(N3C[C@@H]4C[C@H]3CN4)c2)cc(C(N)=O)c1N,IC50,[1],7.78 µM
same,IC50,[2],> 20 µM
CN[C@@H]1CCN(c2cc(-c3cc(C(N)=O)c(N)c(-c4c(C)ccc(O)c4C)c3)ccn2)C1,IC50,[1],0.47 µM
same,IC50,[2],5.6 µM
